The supplement of paper PMC10307832

Legend:
Test in all cases: relative viability (nuclei count vs DMSO), 5 days (fraction); higher = more cells survive
[1] = test system: PC-3 [JPC-3]
Method in brief: (§1)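 Relative viability divides the nuclei count in treated wells by that in vehicle wells. Lung cancer cell lines were seeded in 1536-well plates, dosed by pin tool the next day, and fixed and stained after 5 days in one step with final 0.05% Triton X-100, 1% formaldehyde and 1 ug/ml Hoechst. Dosing was a single drug or a fixed anchor-drug dose plus five library-drug doses (not always all listed) in √10 steps, and values are medians of duplicate plates imaged at 4×.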

[2] = test system: NCI-H1915
Method in brief: as §1

[3] = test system: NCI-H661
Method in brief: as §1

[4] = test system: 201T
Method in brief: as §1

[5] = test system: CAL-12T
Method in brief: as §1

[6] = test system: NCI-H2087
Method in brief: as §1

[7] = test system: NCI-H2023
Method in brief: as §1

[8] = test system: NCI-H1792
Method in brief: as §1

[9] = test system: NCI-H650
Method in brief: as §1

[10] = test system: BEN
Method in brief: as §1

[11] = test system: LCLC-97TM1
Method in brief: as §1

[12] = test system: NCI-H727
Method in brief: as §1

[13] = test system: NCI-H520
Method in brief: as §1

[14] = test system: H3255
Method in brief: as §1

[15] = test system: ABC-1
Method in brief: as §1

[16] = test system: NCI-H1944
Method in brief: as §1

[17] = test system: NCI-H460
Method in brief: as §1

[18] = test system: A-427
Method in brief: as §1

[19] = test system: NCI-H1651
Method in brief: as §1

[20] = test system: NCI-H596
Method in brief: as §1

[21] = test system: NCI-H441
Method in brief: as §1

[22] = test system: LC-2-ad
Method in brief: as §1

Compound `O=C(O)c1ccc(-c2c[nH]c3ncc(-c4ccccc4)cc23)cc1C1CCCC1` + Cc1nc(NC(=O)N2CCC[C@H]2C(N)=O)sc1-c1ccnc(C(C)(C)C(F)(F)F)c1 [Alpelisib] (partner 2 µM) has a relative viability ([1]; first compound 0.04 µM) of 1.05, a relative viability ([1]; first compound 0.1265 µM) of 1.03 and a relative viability ([1]; first compound 0.4 µM) of 1.04. The relative viability ([1]; first compound 1.265 µM) was 0.89, the relative viability ([2]; first compound 0.04 µM) was 1.13 and the relative viability ([2]; first compound 0.1265 µM) was 1.07. The relative viability ([2]; first compound 0.4 µM) was 1.04, the relative viability ([2]; first compound 1.265 µM) was 0.737 and the relative viability ([3]; first compound 0.04 µM) was 0.48. The relative viability ([3]; first compound 0.1265 µM) was 0.676, the relative viability ([3]; first compound 0.4 µM) was 0.675 and the relative viability ([3]; first compound 1.265 µM) was 0.703. It also gave a relative viability ([4]; first compound 0.04 µM) of 1.01, a relative viability ([4]; first compound 0.1265 µM) of 1 and a relative viability ([4]; first compound 0.4 µM) of 0.993. For the same compound, the relative viability ([4]; first compound 1.265 µM) was 0.935, the relative viability ([5]; first compound 0.04 µM) was 1.17 and the relative viability ([5]; first compound 0.1265 µM) was 1.45. For the same compound, the relative viability ([5]; first compound 0.4 µM) was 1.2, the relative viability ([5]; first compound 1.265 µM) was 1.11 and the relative viability ([6]; first compound 0.04 µM) was 1.01. For the same compound, the relative viability ([6]; first compound 0.1265 µM) was 1.06, the relative viability ([6]; first compound 0.4 µM) was 1.08 and the relative viability ([6]; first compound 1.265 µM) was 0.844. The relative viability ([7]; first compound 0.04 µM) was 0.629, the relative viability ([7]; first compound 0.1265 µM) was 0.65 and the relative viability ([7]; first compound 0.4 µM) was 0.583. It also gave a relative viability ([7]; first compound 1.265 µM) of 0.529, a relative viability ([8]; first compound 0.04 µM) of 0.681 and a relative viability ([8]; first compound 0.1265 µM) of 0.9. It also gave a relative viability ([8]; first compound 0.4 µM) of 0.688, a relative viability ([8]; first compound 1.265 µM) of 0.66 and a relative viability ([9]; first compound 0.04 µM) of 1.19. It also gave a relative viability ([9]; first compound 0.1265 µM) of 1.13, a relative viability ([9]; first compound 0.4 µM) of 0.928 and a relative viability ([9]; first compound 1.265 µM) of 0.737. For the same compound, the relative viability ([10]; first compound 0.04 µM) was 1.28, the relative viability ([10]; first compound 0.1265 µM) was 1.07 and the relative viability ([10]; first compound 0.4 µM) was 1.01. It also gave a relative viability ([10]; first compound 1.265 µM) of 0.913, a relative viability ([11]; first compound 0.04 µM) of 0.278 and a relative viability ([11]; first compound 0.1265 µM) of 0.313. The relative viability ([11]; first compound 0.4 µM) was 0.239, the relative viability ([11]; first compound 1.265 µM) was 0.264 and the relative viability ([12]; first compound 0.04 µM) was 0.545. It also gave a relative viability ([12]; first compound 0.1265 µM) of 0.629, a relative viability ([12]; first compound 0.4 µM) of 0.7 and a relative viability ([12]; first compound 1.265 µM) of 0.49. For the same compound, the relative viability ([13]; first compound 0.04 µM) was 0.836, the relative viability ([13]; first compound 0.1265 µM) was 1.09 and the relative viability ([13]; first compound 0.4 µM) was 0.866. The relative viability ([13]; first compound 1.265 µM) was 0.852, the relative viability ([14]; first compound 0.04 µM) was 0.931 and the relative viability ([14]; first compound 0.1265 µM) was 0.776. It also gave a relative viability ([14]; first compound 0.4 µM) of 0.715, a relative viability ([14]; first compound 1.265 µM) of 0.769 and a relative viability ([15]; first compound 0.04 µM) of 0.831. For the same compound, the relative viability ([15]; first compound 0.1265 µM) was 1.09, the relative viability ([15]; first compound 0.4 µM) was 1.24 and the relative viability ([15]; first compound 1.265 µM) was 1.2. It also gave a relative viability ([16]; first compound 0.04 µM) of 0.871, a relative viability ([16]; first compound 0.1265 µM) of 0.94 and a relative viability ([16]; first compound 0.4 µM) of 0.833. The relative viability ([16]; first compound 1.265 µM) was 0.745, the relative viability ([17]; first compound 0.04 µM) was 0.518 and the relative viability ([17]; first compound 0.1265 µM) was 0.607. It also gave a relative viability ([17]; first compound 0.4 µM) of 0.483, a relative viability ([17]; first compound 1.265 µM) of 0.416 and a relative viability ([18]; first compound 0.04 µM) of 1.03. For the same compound, the relative viability ([18]; first compound 0.1265 µM) was 1.13, the relative viability ([18]; first compound 0.4 µM) was 1.06 and the relative viability ([18]; first compound 1.265 µM) was 0.93. For the same compound, the relative viability ([19]; first compound 0.04 µM) was 0.977, the relative viability ([19]; first compound 0.1265 µM) was 1.02 and the relative viability ([19]; first compound 0.4 µM) was 0.613. The relative viability ([19]; first compound 1.265 µM) was 0.713, the relative viability ([20]; first compound 0.04 µM) was 0.492 and the relative viability ([20]; first compound 0.1265 µM) was 0.427. For the same compound, the relative viability ([20]; first compound 0.4 µM) was 0.484, the relative viability ([20]; first compound 1.265 µM) was 0.402 and the relative viability ([21]; first compound 0.04 µM) was 0.707. It also gave a relative viability ([21]; first compound 0.1265 µM) of 0.692, a relative viability ([21]; first compound 0.4 µM) of 0.759 and a relative viability ([21]; first compound 1.265 µM) of 0.382. It also gave a relative viability ([22]; first compound 0.04 µM) of 0.86, a relative viability ([22]; first compound 0.1265 µM) of 0.906 and a relative viability ([22]; first compound 0.4 µM) of 0.827. For the same compound, the relative viability ([22]; first compound 1.265 µM) was 0.573.
